Several values for one entry are separate records, joined by “and”; a condition that tells them apart may be missing. Identical values can stand only once.
Settings: Liquid; for mass density: Vibrating tube method; for viscosity: Falling or rolling sphere viscometry; for self diffusion coefficient: NMR spin-echo technique

OCC(F)(F)F [2,2,2-trifluoroethanol]
Settings	mass density [kg/m3]	self diffusion coefficient	viscosity
303.15 K, 100 kPa	1374.17	–	–
308.15 K, 100 kPa	–	–	1.384 mPa·s
308.28 K, 100 kPa	–	9.35e-10 m2/s	–
313.15 K, 100 kPa	1356.64	–	1.219 mPa·s and 1.221 mPa·s
318.15 K, 100 kPa	–	–	1.081 mPa·s and 1.078 mPa·s
318.17 K, 100 kPa	–	1.24e-09 m2/s and 1.22e-09 m2/s	–
322.14 K, 10500 kPa	–	–	1.125 mPa·s and 1.128 mPa·s
322.14 K, 25500 kPa	–	–	1.286 mPa·s
322.14 K, 50500 kPa	–	–	1.561 mPa·s
322.14 K, 75000 kPa	–	–	1.827 mPa·s
322.14 K, 75200 kPa	–	–	1.828 mPa·s
322.14 K, 100300 kPa	–	–	2.137 mPa·s
323.15 K, 100 kPa	1338.58	–	0.989 mPa·s [middle of 9 runs]
323.15 K, 10000 kPa	–	–	1.091 mPa·s
323.15 K, 10100 kPa	–	–	1.09 mPa·s
323.15 K, 25300 kPa	–	–	1.246 mPa·s
323.15 K, 25400 kPa	–	–	1.248 mPa·s
323.15 K, 49500 kPa	–	–	1.492 mPa·s
323.15 K, 49700 kPa	–	–	1.493 mPa·s
323.15 K, 74800 kPa	–	–	1.781 mPa·s
323.15 K, 75000 kPa	–	–	1.789 mPa·s
323.15 K, 99900 kPa	–	–	2.075 mPa·s
323.15 K, 100000 kPa	–	–	2.073 mPa·s
323.15 K, 100400 kPa	–	–	2.096 mPa·s and 2.093 mPa·s
323.15 K, 125000 kPa	–	–	2.396 mPa·s
323.15 K, 125400 kPa	–	–	2.395 mPa·s
323.15 K, 150100 kPa	–	–	2.737 mPa·s
323.15 K, 150500 kPa	–	–	2.738 mPa·s
323.15 K, 176000 kPa	–	–	3.131 mPa·s
323.15 K, 200300 kPa	–	–	3.654 mPa·s
323.15 K, 200800 kPa	–	–	3.651 mPa·s
323.15 K, 210100 kPa	–	–	3.837 mPa·s and 3.849 mPa·s
323.15 K, 225200 kPa	–	–	4.134 mPa·s
323.15 K, 225300 kPa	–	–	4.131 mPa·s
323.15 K, 226700 kPa	–	–	4.028 mPa·s
323.15 K, 227900 kPa	–	–	4.058 mPa·s
323.15 K, 248900 kPa	–	–	4.6 mPa·s
323.15 K, 249400 kPa	–	–	4.614 mPa·s
323.15 K, 275300 kPa	–	–	5.192 mPa·s
323.15 K, 275600 kPa	–	–	5.209 mPa·s
323.15 K, 300600 kPa	–	–	5.834 mPa·s
323.15 K, 301200 kPa	–	–	5.853 mPa·s
323.15 K, 325600 kPa	–	–	6.509 mPa·s
323.15 K, 326200 kPa	–	–	6.562 mPa·s
323.15 K, 347900 kPa	–	–	7.187 mPa·s
323.15 K, 349200 kPa	–	–	7.207 mPa·s
323.4 K, 100 kPa	–	1.45e-09 m2/s	–
323.5 K, 100 kPa	–	1.39e-09 m2/s	–
323.51 K, 100 kPa	–	1.42e-09 m2/s	–
323.51 K, 23000 kPa	–	1.21e-09 m2/s	–
323.51 K, 50000 kPa	–	1.01e-09 m2/s	–
323.51 K, 74000 kPa	–	8.73e-10 m2/s	–
323.51 K, 99500 kPa	–	7.59e-10 m2/s	–
323.51 K, 300000 kPa	–	3.12e-10 m2/s	–
323.52 K, 150000 kPa	–	5.97e-10 m2/s	–
323.52 K, 198500 kPa	–	4.81e-10 m2/s	–
323.52 K, 249000 kPa	–	3.9e-10 m2/s	–
323.53 K, 351000 kPa	–	2.57e-10 m2/s	–
328.15 K, 100 kPa	–	–	0.8939 mPa·s and 0.8974 mPa·s
328.35 K, 100 kPa	–	1.63e-09 m2/s	–
333.15 K, 100 kPa	1319.81	–	0.8117 mPa·s
338.15 K, 100 kPa	1310.14	–	0.7379 mPa·s and 0.7382 mPa·s
338.44 K, 100 kPa	–	1.95e-09 m2/s	–
342.8 K, 100 kPa	–	2.21e-09 m2/s	–
343.15 K, 100 kPa	1300.26	–	0.671 mPa·s [middle of 5 runs]
343.15 K, 10500 kPa	–	–	0.7504 mPa·s and 0.7498 mPa·s
343.15 K, 25500 kPa	–	–	0.8438 mPa·s
343.15 K, 50000 kPa	–	–	1.016 mPa·s
343.15 K, 76400 kPa	–	–	1.229 mPa·s and 1.228 mPa·s
343.15 K, 99900 kPa	–	–	1.425 mPa·s
343.15 K, 100500 kPa	–	–	1.411 mPa·s
343.15 K, 100700 kPa	–	–	1.419 mPa·s and 1.416 mPa·s
343.15 K, 100900 kPa	–	–	1.421 mPa·s
343.15 K, 125800 kPa	–	–	1.666 mPa·s
343.15 K, 126100 kPa	–	–	1.66 mPa·s
343.15 K, 150000 kPa	–	–	1.894 mPa·s
343.15 K, 150200 kPa	–	–	1.899 mPa·s
343.15 K, 175300 kPa	–	–	2.141 mPa·s
343.15 K, 175600 kPa	–	–	2.149 mPa·s
343.15 K, 200400 kPa	–	–	2.397 mPa·s
343.15 K, 200700 kPa	–	–	2.409 mPa·s
343.15 K, 225200 kPa	–	–	2.644 mPa·s
343.15 K, 225400 kPa	–	–	2.672 mPa·s
343.15 K, 249500 kPa	–	–	2.924 mPa·s
343.15 K, 249800 kPa	–	–	2.935 mPa·s
343.15 K, 276600 kPa	–	–	3.259 mPa·s
343.15 K, 277100 kPa	–	–	3.277 mPa·s
343.15 K, 300300 kPa	–	–	3.57 mPa·s
343.15 K, 301200 kPa	–	–	3.596 mPa·s
343.15 K, 325100 kPa	–	–	3.91 mPa·s
343.15 K, 325600 kPa	–	–	3.939 mPa·s
343.15 K, 350100 kPa	–	–	4.306 mPa·s
343.15 K, 352100 kPa	–	–	4.376 mPa·s
348.02 K, 152000 kPa	–	1.06e-09 m2/s	–
348.06 K, 25000 kPa	–	2.11e-09 m2/s	–
348.06 K, 101000 kPa	–	1.35e-09 m2/s	–
348.07 K, 100 kPa	–	2.57e-09 m2/s	–
348.07 K, 50500 kPa	–	1.79e-09 m2/s	–
348.07 K, 74500 kPa	–	1.57e-09 m2/s	–
348.07 K, 348000 kPa	–	5.2e-10 m2/s	–
348.08 K, 175000 kPa	–	9.55e-10 m2/s	–
348.08 K, 200000 kPa	–	8.68e-10 m2/s	–
348.08 K, 249500 kPa	–	7.32e-10 m2/s	–
348.08 K, 299000 kPa	–	6.15e-10 m2/s	–
348.08 K, 350000 kPa	–	5.16e-10 m2/s	–
